Results: patent publication US8865688B2, “Compositions and methods for treatment of bowel diseases with granulated mesalamine” (priority 2008, dated 2014)
Where “and” joins values, the source holds several entries; their conditions need not be identical. Identical values can stand only once. Like-named read-outs stand apart in the source and are kept apart here.

Tests used:
dogs = test: 26-week and 52-week oral toxicity studies (renal toxicity); type: in vivo; conditions: oral 60 mg/kg/day (about 1.1 times the human dose) or higher
Source text: (§1) Animal studies with mesalamine (13-week and 26-week oral toxicity studies in rats, and 26-week and 52-week oral toxicity studies in dogs) have shown the kidney to be the major target organ of mesalamine toxicity.

[1] = human, in vivo
Ames test = type: cell-based
Experimental: (§2) These doses are about 2.6 and 5.4 times the recommended human dose of granulated mesalamine capsules of 1.5 g/day (30 mg/kg if 50 kg body weight assumed or 1110 mg/m^2), respectively, based on body surface area. Mesalamine was negative in the Ames test, the mouse lymphoma cell (L5178Y/TK+/−) forward mutation test, the sister chromatid exchange assay in the Chinese hamster bone marrow test, and the mouse bone marrow micronucleus test.

rabbits = test: Reproduction studies; conditions: rabbit, in vivo
[2] = Single and multiple oral dose pharmacokinetics of 1.5 g granulated mesalamine formulation, crossover, healthy subjects, fasting; conditions: single dose 1.5 g; harmonic mean (pseudo SD)
rats [3] = test: Dietary carcinogenicity study; type: in vivo; conditions: doses as high as 480 mg/kg/day
Experimental: as §2

mice [4] = test: Dietary carcinogenicity study; type: in vivo; conditions: 2000 mg/kg/day
Experimental: as §2

mice [5] = conditions: mouse, in vivo
CYP2C19 = CYP2C19 (Homo sapiens, UniProt P33261); test: In vitro drug-drug interaction study, human liver microsomes; type: in vitro ADME
Chain of CYP2C19 (P33261 whole entry): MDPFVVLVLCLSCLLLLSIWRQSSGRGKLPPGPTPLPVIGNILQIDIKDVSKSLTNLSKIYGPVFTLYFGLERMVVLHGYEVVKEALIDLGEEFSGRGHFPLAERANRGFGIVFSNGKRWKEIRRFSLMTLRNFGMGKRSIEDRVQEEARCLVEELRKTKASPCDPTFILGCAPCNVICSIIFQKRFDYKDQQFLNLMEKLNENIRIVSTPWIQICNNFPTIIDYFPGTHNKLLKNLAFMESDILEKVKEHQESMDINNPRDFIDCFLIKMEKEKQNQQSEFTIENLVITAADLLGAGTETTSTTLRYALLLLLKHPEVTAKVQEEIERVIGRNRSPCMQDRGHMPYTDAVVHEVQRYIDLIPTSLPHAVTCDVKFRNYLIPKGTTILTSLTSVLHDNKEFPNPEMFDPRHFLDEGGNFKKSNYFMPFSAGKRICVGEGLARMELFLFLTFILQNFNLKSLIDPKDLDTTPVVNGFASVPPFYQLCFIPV

CYP2D6 = CYP2D6 (Homo sapiens, UniProt P10635); test: as above; type: in vitro ADME
Chain of CYP2D6 (P10635 whole entry): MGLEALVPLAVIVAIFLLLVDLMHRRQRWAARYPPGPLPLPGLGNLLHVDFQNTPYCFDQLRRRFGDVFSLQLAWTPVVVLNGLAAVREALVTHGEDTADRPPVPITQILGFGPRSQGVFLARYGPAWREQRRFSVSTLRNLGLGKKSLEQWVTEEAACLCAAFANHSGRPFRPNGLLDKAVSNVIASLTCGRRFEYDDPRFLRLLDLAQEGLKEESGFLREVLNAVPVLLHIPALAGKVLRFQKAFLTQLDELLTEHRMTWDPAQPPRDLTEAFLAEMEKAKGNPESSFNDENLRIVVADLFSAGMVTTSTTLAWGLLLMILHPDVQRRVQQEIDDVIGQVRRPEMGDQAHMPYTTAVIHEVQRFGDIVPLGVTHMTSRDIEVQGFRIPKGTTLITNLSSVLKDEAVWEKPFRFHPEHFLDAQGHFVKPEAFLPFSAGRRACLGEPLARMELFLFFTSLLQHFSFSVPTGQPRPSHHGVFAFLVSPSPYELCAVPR

rats [6] = test: 13-week and 26-week oral toxicity studies (renal toxicity); type: in vivo
Source text: as §1

[7] = Detection in human breast milk; conditions: in vivo
[8] = In vitro plasma protein binding
CYP3A4 = CYP3A4 (Homo sapiens, UniProt P08684); test: In vitro drug-drug interaction study, human liver microsomes; type: in vitro ADME
Chain of CYP3A4 (P08684 whole entry): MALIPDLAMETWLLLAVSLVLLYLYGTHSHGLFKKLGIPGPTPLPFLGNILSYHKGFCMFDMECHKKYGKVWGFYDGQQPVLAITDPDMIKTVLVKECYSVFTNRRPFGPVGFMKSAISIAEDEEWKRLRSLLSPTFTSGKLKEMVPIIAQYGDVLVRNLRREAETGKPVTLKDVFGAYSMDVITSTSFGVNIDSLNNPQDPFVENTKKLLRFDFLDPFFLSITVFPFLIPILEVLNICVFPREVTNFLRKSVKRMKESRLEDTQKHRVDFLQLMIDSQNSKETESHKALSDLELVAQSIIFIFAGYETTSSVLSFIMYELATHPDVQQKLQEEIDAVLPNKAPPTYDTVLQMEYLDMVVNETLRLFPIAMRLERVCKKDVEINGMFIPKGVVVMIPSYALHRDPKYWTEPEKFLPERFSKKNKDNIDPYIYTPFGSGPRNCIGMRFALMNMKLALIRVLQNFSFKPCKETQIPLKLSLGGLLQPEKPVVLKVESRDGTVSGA

[9] = test system: mouse lymphoma cell (L5178Y/TK+/−); test: Mouse lymphoma cell forward mutation test; type: cell-based
Experimental: as §2

[10] = Steady state pharmacokinetics, 3 treatments of 4 days: Asacol 800 mg BID, granulated mesalamine formulation 800 mg BID and 1600 mg QD; type: in vivo, human; conditions: for Tmax: median (range); for AUC: read-out: AUC
Experimental: In a study of 3 treatments in 3 study periods, each separated by a minimum washout of 7 days, treatments were administered orally, and were as follows:
Subjects received treatments A, B, and C, with each administered during one of the three 4-day study treatment periods.
Each treatment regimen lasted for 4 days and was followed by at least a 7 day washout period.

clinical [11] = conditions: human, in vivo
[12] = Effect of high fat meal on absorption of 1.6 g mesalamine granules in sachet, crossover, healthy subjects; type: in vivo, human; conditions: for Effect of high fat meal on plasma Cmax: fed vs fasted, 80%:125% rule
rats [13] = conditions: rat, in vivo
CYP1A2 = molecular target: T1, CYP1A2 (Homo sapiens, UniProt P05177); test: In vitro drug-drug interaction study, human liver microsomes; type: in vitro ADME
T1 construct: In an in vitro study using human liver microsomes; from tissue; host or cells: human liver microsomes
T1 sequence (P05177 1-516): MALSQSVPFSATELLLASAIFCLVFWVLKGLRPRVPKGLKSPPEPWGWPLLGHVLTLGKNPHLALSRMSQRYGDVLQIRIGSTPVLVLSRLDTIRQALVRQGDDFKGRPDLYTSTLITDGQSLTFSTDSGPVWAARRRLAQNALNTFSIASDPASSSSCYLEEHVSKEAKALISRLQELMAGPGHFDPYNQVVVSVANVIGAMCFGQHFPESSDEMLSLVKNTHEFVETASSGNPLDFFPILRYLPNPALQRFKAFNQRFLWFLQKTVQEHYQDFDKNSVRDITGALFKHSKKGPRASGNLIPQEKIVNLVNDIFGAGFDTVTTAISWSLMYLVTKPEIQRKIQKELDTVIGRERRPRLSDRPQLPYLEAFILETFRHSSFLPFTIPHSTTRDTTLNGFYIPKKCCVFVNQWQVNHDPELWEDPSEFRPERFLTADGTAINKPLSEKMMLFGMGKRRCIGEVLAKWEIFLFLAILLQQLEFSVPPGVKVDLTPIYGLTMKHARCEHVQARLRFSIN

rats [14] = test: Reproduction studies; conditions: rat, in vivo
CYP2C9 = CYP2C9 (Homo sapiens, UniProt P11712); test: In vitro drug-drug interaction study, human liver microsomes; type: in vitro ADME
Chain of CYP2C9 (P11712 whole entry): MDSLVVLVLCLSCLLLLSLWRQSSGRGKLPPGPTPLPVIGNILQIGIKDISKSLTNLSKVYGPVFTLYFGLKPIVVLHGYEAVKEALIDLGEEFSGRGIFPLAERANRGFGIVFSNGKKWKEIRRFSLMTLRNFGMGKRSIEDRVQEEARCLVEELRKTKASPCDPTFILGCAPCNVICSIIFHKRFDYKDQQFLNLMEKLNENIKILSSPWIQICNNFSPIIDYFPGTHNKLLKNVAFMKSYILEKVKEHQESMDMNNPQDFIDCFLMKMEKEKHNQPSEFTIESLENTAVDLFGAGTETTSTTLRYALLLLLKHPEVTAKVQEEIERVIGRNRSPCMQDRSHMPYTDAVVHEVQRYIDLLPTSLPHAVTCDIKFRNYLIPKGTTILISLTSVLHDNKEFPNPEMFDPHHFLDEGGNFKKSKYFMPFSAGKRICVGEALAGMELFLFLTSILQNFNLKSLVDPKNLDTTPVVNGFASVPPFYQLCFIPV

[15] = test system: Chinese hamster bone marrow; test: Sister chromatid exchange assay in the Chinese hamster bone marrow test; conditions: in vivo
Experimental: as §2

rats [16] = test: Fertility and reproductive performance study; type: in vivo; conditions: oral doses up to 320 mg/kg
[17] = human, in vivo, 1600 mg
clinical [18] = conditions: human, in vivo, 1600 mg

Nc1ccc(O)c(C(=O)O)c1 [Mesalamine (5-ASA), 5-aminosalicylic acid]
Renal finding (dogs): renal lesions including tubular atrophy, interstitial cell infiltration, chronic nephritis, and papillary necrosis
Increase in systemic exposure (AUC0-24) at steady state compared with a single dose [1]: 1.5 fold
Ames test result (Ames test): negative
Reproduction study finding (rabbits): no evidence of impaired fertility or harm to the fetus
t1/2 [2]: 9 ± 7 h
Carcinogenicity (rats [3]): not carcinogenic
Carcinogenicity (mice [4]): not carcinogenic
Lethal single oral dose (mice [5]): 800 mg/kg
Inhibition of CYP2C19 (CYP2C19): not to inhibit
Inhibition of CYP2D6 (CYP2D6): not to inhibit
Renal finding (rats [6]; oral 40 mg/kg/day (about 0.20 times the human dose)): minimal to slight tubular injury
Renal finding (rats [6]; oral 160 mg/kg/day (about 0.90 times the human dose) or higher): renal lesions including tubular degeneration, tubular mineralization, and papillary necrosis
Concentration detected in human breast milk [7]: low concentrations
fraction unbound at 2.5 μg/mL [8]: 0.57
Inhibition of CYP3A4 (CYP3A4): not to inhibit
Forward mutation test result [9]: negative
Tmax ([10]; Day 4, after Asacol 800 mg BID): 16.0 (0, 24.0) h and 16.0 (0, 24.0)^e h
Steady state plasma concentrations as measured by Cmax, QD compared to BID ([10]; granulated mesalamine formulation): higher
Systemic exposure, QD versus BID regimen ([10]; granulated mesalamine formulation 1600 mg QD vs 800 mg BID): comparable
Time to maximum drug concentrations, mean ([10]; granulated mesalamine formulation administered BID): 11.00 h
Time to maximum drug concentrations, mean ([10]; granulated mesalamine formulation administered QD): 3.96 h
AUC ([10]; human, plasma, oral, 800 mg, AUCC, Day 4, after Asacol 800 mg BID, converted from μmol * h/L): 8.34 ± 7.5 ng·h/mL
AUC ([10]; human, plasma, oral, 800 mg, AUCC, Day 4, after MP 800 mg BID, converted from μmol * h/L): 14800 ± 5500 ng·h/mL
AUC ([10]; human, plasma, oral, 800 mg, AUCC, Day 4, after Treatment A Asacol 800 mg BID, mean ± SD): 54.5 ± 49 µM·h
AUC ([10]; human, plasma, oral, 800 mg, AUCC, Day 4, after Treatment B MP 800 mg BID, mean ± SD): 97 ± 35.9 µM·h
Cmax ([10]; human, plasma, oral, 800 mg, Day 4, after Asacol 800 mg BID, converted from μmol/L, mean ± SD): 1060 ± 1370 ng/mL
Cmax ([10]; human, plasma, oral, 800 mg, Day 4, after MP 800 mg BID, converted from μmol/L, mean ± SD): 1820 ± 710 ng/mL
Cmax ([10]; human, plasma, oral, 800 mg, plasma, Day 4, after Treatment A Asacol 800 mg BID, n = 28, mean ± SD): 6.93 ± 8.99 µM
Cmax ([10]; human, plasma, oral, 800 mg, plasma, Day 4, after Treatment B MP 800 mg BID, n = 28, mean ± SD): 11.9 ± 4.65 µM
AUC ([10]; human, plasma, oral, 1600 mg, AUC0-24, Day 4, after MP 1600 mg QD, converted from μmol * h/L): 14800 ± 6490 ng·h/mL
AUC ([10]; human, plasma, oral, 1600 mg, AUC0-24, Day 4, after Treatment C MP 1600 mg QD, mean ± SD): 96.5 ± 42.4 µM·h
Cmax ([10]; human, plasma, oral, 1600 mg, Day 4, after MP 1600 mg QD, converted from μmol/L, mean ± SD): 3040 ± 1670 ng/mL
Cmax ([10]; human, plasma, oral, 1600 mg, plasma, Day 4, after Treatment C MP 1600 mg QD, n = 28, mean ± SD): 19.9 ± 10.9 µM
Tmax ([10]; human, plasma, oral, Day 4, after MP 800 mg BID, time from first dose, read-out: Tmax): 16 h
Tmax ([10]; human, plasma, oral, Day 4, after MP 1600 mg QD, read-out: Tmax): 3 h
AUC(0-inf) (clinical [11]): 14000 ± 5000 ng·h/mL
AUC(0-t) (clinical [11]; AUC0-24): 11000 ± 5000 ng·h/mL
Cmax (clinical [11]; Cmax): 2100 ± 1100 ng/mL
Tmax (clinical [11]; Tmax): 4 h
Increase in AUC0-inf following a high-fat meal ([12]; 1.6 g granulated mesalamine): 11%
Increase in AUC0-last following a high-fat meal ([12]; 1.6 g granulated mesalamine): 16%
Tmax following a high-fat meal ([12]; 1.6 g granulated mesalamine (2×0.8 g)): prolonged
Increase in cumulative urinary excretion with a high fat meal ([12]; 1.6 g granules): 27%
Effect of high fat meal on plasma Cmax ([12]; 1.6 g granules, listed as 5-ASA): did not affect
Effect of high fat meal on plasma Cmax ([12]; 1.6 g granules, listed as mesalamine): equivalent
Lethal single oral dose (rats [13]): 1800 mg/kg
Inhibition of CYP1A2 (CYP1A2): not to inhibit
Reproduction study finding (rats [14]): no evidence of impaired fertility or harm to the fetus
Inhibition of CYP2C9 (CYP2C9): not to inhibit
Sister chromatid exchange assay result [15]: negative
Effect on fertility or reproductive performance (rats [16]): no effect
T1/2 [17]: 5.49 h
half-life (clinical [18]): 5.49 h
